{"source": "patent US10760110B2", "about": "“Antibiotic testing and screening system” (priority 2017, dated 2020)", "key": {"[1]": {"test_system": "A. baumannii KW1 and its AdeR/AdeS mutants", "experiment": "Etest MIC, AdeABC overexpression via AdeR or AdeS mutation (Table 16)", "format": "cell-based, Acinetobacter baumannii", "details": "Acinetobacter baumannii", "excerpt": "DNA fragments of the entire adeR, adeS, gyrA and parC along with their flanking regions were amplified from A. baumannii KW1 using PCR with specific primer pairs and then cloned into plasmid pUT-KB. The QuikChange site-directed mutagenesis kit (Stratagene) was used to generate mutations in the adeR, adeS, gyrA and parC genes in the plasmids using the methods described by the manufacturer. For homologous recombination, plasmids containing mutations in the adeR, adeS, gyrA or parC gene were transformed into E. coli S17-1 λpir^23 via electroporation and mobilized into A. baumannii KW1 via conjugation. Single-crossover strains were selected from Luria-Bertani (LB) plates supplemented with cefotaxime (1 μg/ml) and kanamycin ([…]), as the growth of non-A. baumannii contaminants is suppressed by cefotaxime (1 μg/ml). The kanamycin-resistant transconjugants were selected and the insertion of plasmids was verified via PCR. After incubation in 20 ml brain heart infusion (BHI) broth for 6 hours in the absence of kanamycin at 37° C., the fully grown cultures were spread onto LB plates supplemented with 10% sucrose. After the double crossover occurred, the sucrose-resistant and kanamycin-susceptible colonies were selected, and the gene mutations were confirmed via PCR.\n(§1) The MICs of antibiotics were determined using the Etest (Biodisk AB, Sweden) according to the manufacturer's instructions. The MICs from the Etest, which fall between standard two-fold dilutions, were rounded up to the next highest two-fold value. The MICs of ceftazidime and cefotaxime against K. pneumoniae NVT1001 harbouring the pACYC177 plasmid with blaOXA-48 were further determined using a broth microdilution test according to the recommendations of the CLSI,^25 and the results were interpreted according to the breakpoints established by the CLSI in 2017.^25 Meanwhile, due to the lack of CLSI breakpoints in 2016 and 2017, the results for cephalothin were interpreted according to the breakpoints established by the CLSI in 2015,^26 and the results for moxifloxacin were interpreted according to the breakpoints established by the EUCAST in 2017.^27"}, "[2]": {"test_system": "K. pneumoniae NVT1001 and its ΔompK35/36 and/or ΔramR mutants", "experiment": "Etest MIC, OmpK35/36 loss and AcrAB-TolC overexpression (ΔramR) strains (Table 6)", "format": "cell-based, Klebsiella pneumoniae", "details": "Klebsiella pneumoniae", "outline": "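Etest MICs against K. pneumoniae NVT1001 and its ΔompK35/36 and/or ΔramR mutants, rounded up to the next two-fold value. For NVT1001 carrying pACYC177-blaOXA-48, ceftazidime and cefotaxime MICs by CLSI broth microdilution, interpreted with CLSI 2017 breakpoints.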"}, "[3]": {"test_system": "K. pneumoniae NVT1001 and ΔramR strains with tet resistance gene plasmids", "experiment": "Etest MIC of tetracyclines, AcrAB-TolC overexpression (ΔramR) and/or tet resistance gene (Table 14)", "format": "cell-based, Klebsiella pneumoniae", "details": "for MIC: Klebsiella pneumoniae", "description": "DNA fragments of the resistance genes along with their flanking regions were amplified from clinical plasmids via PCR with specific primer pairs. The resulting PCR fragments were digested and then cloned into the plasmid pACYC177 or pACYC184. The resulting plasmids were then transformed into K. pneumoniae strain NVT1001 via electroporation. The recombinant bacteria were plated onto LB agar plates containing kanamycin (50 mg/L) or chloramphenicol (50 mg/L), and the presence of the cloned gene was confirmed via PCR and DNA sequencing.\nas §1"}, "[4]": {"test_system": "A. baumannii KW1 strains with tet resistance gene plasmids", "experiment": "Etest MIC of tetracyclines, tet resistance gene (Table 20)", "format": "cell-based, Acinetobacter baumannii", "details": "for MIC: Acinetobacter baumannii", "description": "DNA fragments of the resistance genes along with their flanking regions were amplified from clinical plasmids via PCR with specific primer pairs. The resulting PCR fragments were digested and then cloned into the plasmid pYMAb5 or pYMAb5Tc. The resulting plasmids were then transformed into A. baumannii KW1 via electroporation.\nas §1"}, "[5]": {"test_system": "K. pneumoniae NVT1001 ΔramRΔompK35/36 mutant and its revertants", "experiment": "Etest MIC, ΔramRΔompK35/36 mutant and its revertants (Table 7)", "format": "cell-based", "details": "Klebsiella pneumoniae"}}, "note": "Where two headings read alike, the source gives them in different places."}
{"smiles": "CN(C)c1cc(NC(=O)CNC(C)(C)C)c(O)c2c1C[C@H]1C[C@H]3[C@H](N(C)C)C(O)=C(C(N)=O)C(=O)[C@@]3(O)C(O)=C1C2=O", "note": "[Tigecycline, tigecycline]", "values": [{"measurement": "MIC", "setting": "[1]; A91V mutant (AdeR)", "value": 3, "unit": "µg/mL"}, {"measurement": "MIC", "setting": "[1]; A94V mutant (AdeS)", "value": 2, "unit": "µg/mL"}, {"measurement": "MIC", "setting": "[1]; D20N mutant (AdeR)", "value": 2, "unit": "µg/mL"}, {"measurement": "MIC", "setting": "[1]; G30D mutant (AdeS)", "value": 3, "unit": "µg/mL"}, {"measurement": "MIC", "setting": "[1]; KW1, read-out: MIC", "value": 0.25, "unit": "µg/mL"}, {"measurement": "MIC", "setting": "[1]; P116L mutant (AdeR)", "value": 1.5, "unit": "µg/mL"}, {"measurement": "MIC", "setting": "[1]; R152K mutant (AdeS)", "value": 2, "unit": "µg/mL"}, {"measurement": "MIC", "setting": "[1]; T153M mutant (AdeS)", "value": 3, "unit": "µg/mL"}, {"measurement": "MIC", "setting": "[2]; WT, NVT1001, read-out: MIC", "value": 1, "unit": "µg/mL"}, {"measurement": "MIC", "setting": "[2]; Δ35, ΔompK35 mutant", "value": 1, "unit": "µg/mL"}, {"measurement": "MIC", "setting": "[2]; Δ35/36, ΔompK35/36 mutant", "value": 1, "unit": "µg/mL"}, {"measurement": "MIC", "setting": "[2]; Δ36, ΔompK36 mutant", "value": 1, "unit": "µg/mL"}, {"measurement": "MIC", "setting": "[2]; ΔramR mutant", "value": 8, "unit": "µg/mL"}, {"measurement": "MIC", "setting": "[2]; ΔramRΔ35, ΔramRΔompK35 mutant", "value": 8, "unit": "µg/mL"}, {"measurement": "MIC", "setting": "[2]; ΔramRΔ35/36, ΔramRΔompK35/36 mutant", "value": 8, "unit": "µg/mL"}, {"measurement": "MIC", "setting": "[2]; ΔramRΔ36, ΔramRΔompK36 mutant", "value": 8, "unit": "µg/mL"}, {"measurement": "MIC", "setting": "[3]; NVT1001, Tet(A) on pACYC177, read-out: MIC", "value": 8, "unit": "µg/mL"}, {"measurement": "MIC", "setting": "[3]; NVT1001, Tet(B) on pACYC177, read-out: MIC", "value": 1, "unit": "µg/mL"}, {"measurement": "MIC", "setting": "[3]; NVT1001, Tet(C) on pACYC177, read-out: MIC", "value": 1, "unit": "µg/mL"}, {"measurement": "MIC", "setting": "[3]; NVT1001, Tet(D) on pACYC177, read-out: MIC", "value": 1, "unit": "µg/mL"}, {"measurement": "MIC", "setting": "[3]; NVT1001, Tet(M) on pACYC177, read-out: MIC", "value": 1, "unit": "µg/mL"}, {"measurement": "MIC", "setting": "[3]; NVT1001, no supplemental plasmid, read-out: MIC", "value": 1, "unit": "µg/mL"}, {"measurement": "MIC", "setting": "[3]; ΔramR, Tet(A) on pACYC177", "value": 32, "unit": "µg/mL"}, {"measurement": "MIC", "setting": "[3]; ΔramR, Tet(B) on pACYC177", "value": 8, "unit": "µg/mL"}, {"measurement": "MIC", "setting": "[3]; ΔramR, Tet(C) on pACYC177", "value": 8, "unit": "µg/mL"}, {"measurement": "MIC", "setting": "[3]; ΔramR, Tet(D) on pACYC177", "value": 8, "unit": "µg/mL"}, {"measurement": "MIC", "setting": "[3]; ΔramR, Tet(M) on pACYC177", "value": 8, "unit": "µg/mL"}, {"measurement": "MIC", "setting": "[3]; ΔramR, no supplemental plasmid", "value": 8, "unit": "µg/mL"}, {"measurement": "increase in the MIC", "setting": "[3]; Tet(A) production", "value": 8, "unit": "fold"}, {"measurement": "effects on the MIC", "setting": "[3]; production of Tet(B), Tet(C), Tet(D) or Tet(M), with or without ΔramR", "value": "no observable effects"}, {"measurement": "increase in the MIC", "setting": "[3]; {}", "value": 8, "unit": "fold"}, {"measurement": "MIC", "setting": "[4]; KW1, Tet(A) on pYMAb5", "value": 1, "unit": "µg/mL"}, {"measurement": "MIC", "setting": "[4]; KW1, Tet(B) on pYMAb5", "value": 0.38, "unit": "µg/mL"}, {"measurement": "MIC", "setting": "[4]; KW1, Tet(M) on pYMAb5", "value": 0.38, "unit": "µg/mL"}, {"measurement": "MIC", "setting": "[4]; KW1, no supplemental plasmid", "value": 0.38, "unit": "µg/mL"}, {"measurement": "MIC", "setting": "[4]; KW1 with shuttle vector pYMAb5", "value": 0.38, "unit": "µg/mL"}, {"measurement": "effects on the MIC", "setting": "[4]; production of Tet(B) or Tet(M)", "value": "no observable effects"}, {"measurement": "MIC", "setting": "[5]; ΔramRΔompK35/36::ompK35/36 revertant", "value": 8, "unit": "µg/mL"}, {"measurement": "MIC", "setting": "[5]; ΔramRΔompK35/36::ompK35 revertant", "value": 8, "unit": "µg/mL"}, {"measurement": "MIC", "setting": "[5]; ΔramRΔompK35/36::ompK36 revertant", "value": 8, "unit": "µg/mL"}, {"measurement": "MIC", "setting": "[5]; ΔramRΔompK35/36::ramR revertant", "value": 1, "unit": "µg/mL"}, {"measurement": "MIC", "setting": "[5]; ΔramRΔompK35/36::ramR::ompK35/36 revertant", "value": 1, "unit": "µg/mL"}, {"measurement": "MIC", "setting": "[5]; ΔramRΔompK35/36::ramR::ompK35 revertant", "value": 1, "unit": "µg/mL"}, {"measurement": "MIC", "setting": "[5]; ΔramRΔompK35/36::ramR::ompK36 revertant", "value": 1, "unit": "µg/mL"}, {"measurement": "MIC", "setting": "[5]; ΔramRΔompK35/36 mutant", "value": 8, "unit": "µg/mL"}]}
